Measured values: patent US20120003661A1, “METHODS AND DEVICES FOR THE SELECTIVE DETECTION OF MICROORGANISMS” (C3 JIAN, INC., priority 2010, published 2012)
“Also recorded” adds a separate entry of the source.

tested on: bacteria, fungi, and/or yeasts; format: binding; conditions: microorganism(s) the targeting peptide binds, as listed in Table 2

| Substance | Target(s) |
| --- | --- |
| 1T-143 (MPKRHYYKLEAKALQFGLPFAYSPIQLLK) | A. naeslundii, F. nucleatum, P. gingivalis,; also recorded: S. epidermidis, S. gordonii,; also recorded: S. mitis, S. mutans, S. oralis,; also recorded: S. salivarious, S. sanguinis |
| 1T-144 (IIELHPKSWTQDWRCSFL) | A. naeslundii, F. nucleatum, P. gingivalis,; also recorded: T. denticola, S. gordonii,; also recorded: S. mitis, S. mutans, S. oralis,; also recorded: S. salivarious, S. sanguinis |
| 1T-145 (VEAGKRNISLENIEKISKGLGISISELFKYIEEGEDKIG) | S. mitis, S. mutans, S. oralis |
| 1T-146 (RNSADNQTKIDKIRIDISLWDEHLNIVKQGK) | A. naeslundii, F. nucleatum, P. gingivalis,; also recorded: T. denticola, S. gordonii,; also recorded: S. mitis, S. mutans, S. oralis,; also recorded: S. salivarious, S. sanguinis |
| 1T-147 (GVENRRFYERDVSKVSMMTSEAVAPRGGSK) | A. naeslundii, F. nucleatum, P. gingivalis,; also recorded: T. denticola, S. gordonii,; also recorded: S. mitis, S. mutans, S. oralis,; also recorded: S. salivarious, S. sanguinis |
| 1T-148 (IVELDDTTILERALSMLGEANA) | A. naeslundii, F. nucleatum, P. gingivalis,; also recorded: T. denticola, S. gordonii,; also recorded: S. mitis, S. mutans, S. oralis,; also recorded: S. salivarious, S. sanguinis |
| 1T-149 (SVRAVKPIDETVARHFPGDFIVN) | A. naeslundii, F. nucleatum, P. gingivalis,; also recorded: T. denticola, S. gordonii,; also recorded: S. mitis, S. mutans, S. oralis,; also recorded: S. salivarious, S. sanguinis |
| 1T-150 (YINRRLKKAFSDADIKEAPAEFYEELRRVQYV) | A. naeslundii, F. nucleatum, P. gingivalis,; also recorded: T. denticola, S. gordonii,; also recorded: S. mitis, S. mutans, S. oralis,; also recorded: S. salivarious, S. sanguinis |
| 1T-151 (SVRAVKPIDEIVAWHFPGDFIVN) | A. naeslundii, F. nucleatum, P. gingivalis,; also recorded: T. denticola, S. gordonii,; also recorded: S. mitis, S. mutans, S. oralis,; also recorded: S. salivarious, S. sanguinis |
| 1T-152 (YVSADESAYNHIVTDDIPLADRRIEAVQQ) | A. naeslundii, F. nucleatum, P. gingivalis,; also recorded: S. epidermidis, S. gordonii,; also recorded: S. mitis, S. mutans, S. oralis,; also recorded: S. salivarious, S. sanguinis |
| 1T-153 (YIACPGYFY) | A. naeslundii, F. nucleatum, P. gingivalis,; also recorded: S. epidermidis, S. gordonii,; also recorded: S. mitis, S. mutans, S. oralis,; also recorded: S. salivarious, S. sanguinis |
| 1T-154 (YFSFLEIVGMARR) | P. gingivalis |
| 1T-155 (LKLAFGVYPFQAMSQSDTAVSERNVLWR) | A. naeslundii, F. nucleatum, P. gingivalis,; also recorded: S. epidermidis, S. gordonii,; also recorded: S. mitis, S. mutans, S. oralis,; also recorded: S. salivarious, S. sanguinis |
| 1T-156 (GRFQISIRGEEKSKVKVQGKGTFTDRNTT) | A. naeslundii, F. nucleatum, P. gingivalis,; also recorded: T. denticola, S. gordonii,; also recorded: S. mitis, S. mutans, S. oralis,; also recorded: S. salivarious, S. sanguinis |
| 1T-157 (RRFRKTTENREKSKNKKAVLGLSTTSTASY) | A. naeslundii, F. nucleatum, P. gingivalis,; also recorded: T. denticola, S. gordonii,; also recorded: S. mitis, S. mutans, S. oralis,; also recorded: S. salivarious, S. sanguinis |
| 1T-158 (WENKPSPLGSIKKLQGLVYRLIGYRHFWV) | A. naeslundii, F. nucleatum, P. gingivalis,; also recorded: S. epidermidis, S. gordonii,; also recorded: S. mitis, S. mutans, S. oralis,; also recorded: S. salivarious, S. sanguinis |
| 1T-159 (IFSLHHFALICSEMGTFAVSKRAKYKWEVL) | P. gingivalis |
| 1T-160 (AQYKYINKLLN) | A. naeslundii, F. nucleatum, P. gingivalis,; also recorded: T. denticola, S. gordonii,; also recorded: S. mitis, S. mutans, S. oralis,; also recorded: S. salivarious, S. sanguinis |

| Substance | Target(s) |
| --- | --- |
| 1T-161 (NKVLQVEVMWDGSVVGRPAGVISIKSSKKG) | A. naeslundii, F. nucleatum, P. gingivalis,; also recorded: S. epidermidis, S. gordonii,; also recorded: S. mitis, S. mutans, S. oralis,; also recorded: S. salivarious, S. sanguinis |
| 1T-162 (QKAKEESDRKAAVSYNGFHRVNVVSIPK) | A. naeslundii, F. nucleatum, P. gingivalis,; also recorded: T. denticola, S. gordonii,; also recorded: S. mitis, S. mutans, S. oralis,; also recorded: S. salivarious, S. sanguinis |
| 1T-163 (MENILIYIPMVLSPFGSGILLFLGKDRRYML) | A. naeslundii, F. nucleatum, P. gingivalis,; also recorded: S. epidermidis, S. gordonii,; also recorded: S. mitis, S. mutans, S. oralis,; also recorded: S. salivarious, S. sanguinis |
| 1T-164 (KKSHSQGKRKLKDLNSAYKIDNQLHYALR) | A. naeslundii, F. nucleatum, P. gingivalis,; also recorded: S. epidermidis, S. gordonii,; also recorded: S. mitis, S. mutans, S. oralis,; also recorded: S. salivarious, S. sanguinis |
| 1T-165 (CYDSFDFSIFVTFANRMKLSVGS) | A. naeslundii, F. nucleatum, P. gingivalis,; also recorded: S. epidermidis, S. gordonii,; also recorded: S. mitis, S. mutans, S. oralis,; also recorded: S. salivarious, S. sanguinis |
| 1T-166 (AQSAGQIKRKSKVRIHV) | A. naeslundii, F. nucleatum, P. gingivalis,; also recorded: S. epidermidis, S. gordonii,; also recorded: S. mitis, S. mutans, S. oralis,; also recorded: S. salivarious, S. sanguinis |
| 1T-167 (SRMSEHSPAGLVFEVGPMDKGSFIILDSYHPTVKK) | A. naeslundii, F. nucleatum, P. gingivalis,; also recorded: S. epidermidis, S. gordonii,; also recorded: S. mitis, S. mutans, S. oralis,; also recorded: S. salivarious, S. sanguinis |
| 1T-168 (ELHRIMSTEKIGAVTKMNFDTAPIMSILPIDIYPKEVGIGS) | A. naeslundii, F. nucleatum, P. gingivalis,; also recorded: S. epidermidis, S. gordonii,; also recorded: S. mitis, S. mutans, S. oralis,; also recorded: S. salivarious, S. sanguinis |
| 1T-169 (FARVRRLHQNRILTQPLTNLKYCLRQPIYSD) | A. naeslundii, F. nucleatum, P. gingivalis,; also recorded: S. epidermidis, S. gordonii,; also recorded: S. mitis, S. mutans, S. oralis,; also recorded: S. salivarious, S. sanguinis |
| 1T-170 (AYGKVFSMDIMLSENDKLIVLRISHHSAWH) | P. gingivalis |
| 1T-171 (SVRAVKPIDKTVARHFPGDFIVN) | A. naeslundii, F. nucleatum, P. gingivalis,; also recorded: S. epidermidis, S. gordonii,; also recorded: S. mitis, S. mutans, S. oralis,; also recorded: S. salivarious, S. sanguinis |
| 1T-172 (FEGLKNLLGDDII) | A. naeslundii, F. nucleatum, P. gingivalis,; also recorded: S. epidermidis, S. gordonii,; also recorded: S. mitis, S. mutans, S. oralis,; also recorded: S. salivarious, S. sanguinis |
| 1T-173 (LFRKEDQEHVLL) | A. naeslundii, F. nucleatum, P. gingivalis,; also recorded: S. gordonii, S. mitis,; also recorded: S. mutans, S. oralis, S. salivarious,; also recorded: S. sanguinis |
| 1T-174 (SGGSDTDGSSSGEPGSHSGDL) | A. naeslundii, F. nucleatum, P. gingivalis,; also recorded: T. denticola, S. gordonii,; also recorded: S. mitis, S. mutans, S. oralis,; also recorded: S. salivarious, S. sanguinis |
| 1T-175 (GEPGSHSGDL) | A. naeslundii, F. nucleatum, P. gingivalis,; also recorded: S. epidermidis, S. gordonii,; also recorded: S. mitis, S. mutans, S. oralis,; also recorded: S. salivarious, S. sanguinis |
| 1T-176 (PVGDIMSGFLRGANQPRFLLDHISFGS) | A. naeslundii, P. gingivalis, S. epidermidis,; also recorded: S. gordonii, S. mitis,; also recorded: S. mutans, S. oralis, S. salivarious,; also recorded: S. sanguinis |
| 1T-177 (GTNVPTQILGYSREERFDYEPAPEQR) | P. gingivalis, S. gordonii, S. mitis,; also recorded: S. mutans, S. oralis, S. salivarious,; also recorded: S. sanguinis |
